Reference: PMC6128881, “Novel insight into the reaction of nitro, nitroso and hydroxylamino benzothiazinones and of benzoxacinones with Mycobacterium tuberculosis DprE1” (Scientific Reports, 2018)
≈ marks a conversion by molar mass, not a printed value. Where “and” joins values, the source holds several entries; their conditions need not be identical. Identical values can stand only once. Like-named read-outs stand apart in the source and are kept apart here.

Key:
Mtb-DprE1 [1] = molecular target: T1, Mtb-DprE1 (Mycobacterium tuberculosis, UniProt P9WJF1); assay: biochemical; assay type: biochemical; conditions: for dependence of kobs on inhibitor concentration: inhibitor 10 nM to 100 µM; for fold increase in kinact/Ki as compared to 7: relative to 7; for kinact/Ki: second order rate constant of inactivation, 150 nM Mtb-DprE1, 1 mM FPR, up to 100 min; for fold lower kinact/Ki of BOZ than the BTZ counterpart: 4 vs 7, 3 vs 6, 5 vs 9
T1 construct: made in house; host or cells: E. coli

M. smegmatis [2] = tested on: M. smegmatis; set-up: method as in PMID 22956199; conditions: cited from earlier work
M. smegmatis [3] = assay: MIC against M. smegmatis (literature); assay type: cell-based
M. smegmatis DprE1 = tested on: M. smegmatis DprE1; set-up: method as in PMID 22956199; conditions: cited from earlier work; for IC50: read-out: M. smegmatis DprE1 enzymatic IC50
[4] = assay type: physicochemical; conditions: pH 7.4
Description: Solubility of compounds was measured by Chemi-Luminescent Nitrogen Detection (CLND)[32]. […] of 10 mM DMSO stock solutions of compounds were diluted to […] with phosphate buffered saline (PBS), pH 7.4, equilibrated for 1 hour at room temperature and filtered through Millipore Multiscreen HTS-PCF filter plates (MSSL BPC) prior to analysis by CLND.

M. tuberculosis H37Rv = assay: Minimal inhibitory concentration, M. tuberculosis H37Rv; assay type: cell-based, Mycobacterium tuberculosis; conditions: for MIC Mtb-H37Rv / MIC / Inhibition of Mtb-H37Rv (MIC): n = 3; for MIC: read-out: MIC Mtb-H37Rv; for fold higher Mtb MIC of BOZ relative to BTZ counterpart: 5 vs 9, 10 vs PBTZ169
Description: MIC values for M. tuberculosis H37Rv and M. vaccae […] were determined as described previously[33],[34].

M. vaccae 10670 = assay: Minimal inhibitory concentration, M. vaccae; assay type: cell-based; conditions: n = 1
Mtb-DprE1 [5] = molecular target: T1, Mtb-DprE1; assay: Intact protein mass spectrometry of Mtb-DprE1 after incubation with inhibitor; assay type: binding; conditions: for mass increase of Mtb-DprE1 (covalent adduct): incubated in the presence of FPR and FAD, LC-MS; for extent of modification of Mtb-DprE1: 20 μM FAD
[6] = IC50, final value of the decrease during the first 100 min of reaction, 100 min of reaction
[7] = IC50, starting value of the decrease during the first 100 min of reaction, early reaction time
[8] = Mycobacterium tuberculosis, H37RV

T1 sequence (P9WJF1 whole entry): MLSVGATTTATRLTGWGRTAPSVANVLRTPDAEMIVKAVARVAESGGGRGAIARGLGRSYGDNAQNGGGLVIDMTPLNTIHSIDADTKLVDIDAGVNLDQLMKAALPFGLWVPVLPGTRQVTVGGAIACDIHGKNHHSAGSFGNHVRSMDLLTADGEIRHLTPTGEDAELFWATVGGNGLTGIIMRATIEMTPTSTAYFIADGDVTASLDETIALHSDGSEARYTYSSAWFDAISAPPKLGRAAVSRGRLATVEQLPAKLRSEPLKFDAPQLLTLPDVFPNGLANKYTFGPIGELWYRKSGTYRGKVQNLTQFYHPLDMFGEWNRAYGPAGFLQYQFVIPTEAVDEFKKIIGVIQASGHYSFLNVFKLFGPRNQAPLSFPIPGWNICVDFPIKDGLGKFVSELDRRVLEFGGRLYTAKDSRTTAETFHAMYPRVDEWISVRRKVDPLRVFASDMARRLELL

Compound | dependence of kobs on inhibitor concentration (Mtb-DprE1 [1]) | CLND Solubility [4] | MIC Mtb-H37Rv (M. tuberculosis H37Rv) | MIC (M. tuberculosis H37Rv) | MIC (M. vaccae 10670) | MIC M. vaccae 10670 (M. vaccae 10670) | kinact/Ki (Mtb-DprE1 [1]) | further results
O=c1nc(N2CCOCC2)sc2c([N+](=O)[O-])cc(C(F)(F)F)cc12 [Compound 6, 2-(morpholin-4-yl)-8-nitro-6-(trifluoromethyl)-4H-1,3-benzothiazin-4-one] | hyperbolic dependence |  |  |  |  |  |  | 
C[C@H]1COC2(CCN(c3nc(=O)c4cc(C(F)(F)F)cc(NO)c4s3)CC2)O1 [BTZ046] |  |  |  |  |  |  |  | MIC against M. smegmatis (M. smegmatis [2]): 1000 ng/ml and 2.4 μM; fold by which MIC against M. smegmatis is lower than the enzymatic IC50 (M. smegmatis [3]; from literature values): approximately 8 fold; time dependent inhibition of M. smegmatis DprE1 (M. smegmatis DprE1): not observed; IC50 (M. smegmatis DprE1): 20 µM
CC1CCCC(C)N1c1nc(=O)c2cc(C(F)(F)F)cc([N+](=O)[O-])c2s1 (centres unmarked) [Compound 9, 2-(2,6-Dimethylpiperidin-1-yl)-8-nitro-6-(trifluoromethyl)-4H-1,3-benzothiazin-4-one] | linear dependence |  |  |  |  |  |  | fold increase in kinact/Ki as compared to 7 (Mtb-DprE1 [1]): 6 fold
O=c1nc(N2CCCCC2)sc2c([N+](=O)[O-])cc(C(F)(F)F)cc12 [C00002] |  | 370 µM | 1.2 µg/mL (≈ 3.34 µM) | 3.3 µM (≈ 1.19 µg/mL) | 1.1 µM (≈ 0.395 µg/mL) | 0.4 µg/mL (≈ 1.11 µM) | 39 ± 2 M⁻¹ s⁻¹ | 
O=Nc1cc(C(F)(F)F)cc2c(=O)nc(N3CCCCC3)sc12 [Compound 1, 8-Nitroso-2-(piperidin-1-yl)-6-(trifluoromethyl)-4H-1,3-benzothiazin-4-one] |  |  |  |  |  |  |  | IC50 (Mtb-DprE1 [1]; [6]): 3 µM; IC50 (Mtb-DprE1 [1]; [7]): 5 µM; mass increase of Mtb-DprE1 (covalent adduct) (Mtb-DprE1 [5]): 343 Da
O=c1nc(N2CCN(CC3CCCCC3)CC2)sc2c([N+](=O)[O-])cc(C(F)(F)F)cc12 [C00010] |  | 32 µM | 0.00019 µg/mL (≈ 0.000416 µM) | 0.00042 µM (≈ 0.000192 µg/mL) |  |  |  | 
O=c1nc(N2CCCCC2)sc2c([N+](=O)[O-])c(Cl)c(C(F)(F)F)cc12 [Compound 11, 7-Chloro-8-nitro-2-(piperidin-1-yl)-6-(trifluoromethyl)-4H-1,3-benzothiazin-4-one] | hyperbolic dependence |  |  |  |  |  |  | fold increase in kinact/Ki as compared to 7 (Mtb-DprE1 [1]): 8.7 fold; mass increase of Mtb-DprE1 (covalent adduct) (Mtb-DprE1 [5]): 378 Da
O=c1nc(N2CCN(CC3CCCCC3)CC2)oc2c([N+](=O)[O-])cc(C(F)(F)F)cc12 [C00011] |  | 12 µM | 0.14 µg/mL (≈ 0.318 µM) | 0.31 µM (≈ 0.137 µg/mL) | < 0.11 µM | < 0.05 µg/mL | 300 ± 40 M⁻¹ s⁻¹ | 
O=c1nc(N2CCN(CC3CCCCC3)CC2)oc2c([N+](=O)[O-])cc(C(F)(F)F)cc12 [Compound 10, 2-[4-(cyclohexylmethyl)piperazin-1-yl]-8-nitro-6-(trifluoromethyl)-4H-1,3-benzoxazin-4-one] | hyperbolic dependence |  |  |  |  |  |  | fold higher Mtb MIC of BOZ relative to BTZ counterpart (M. tuberculosis H37Rv): approximately 700 fold; MIC (M. tuberculosis H37Rv; [8]): 0.3 µM (≈ 0.132 µg/mL)
O=c1nc(N2CCCCC2)sc2c([N+](=O)[O-])cc(C(F)(F)F)cc12 [Compound 7, 8-Nitro-2-(piperidin-1-yl)-6-(trifluoromethyl)-4H-1,3-benzothiazin-4-one] | linear dependence |  | low micromolar |  |  | low micromolar |  | 
O=c1nc(N2CCCCC2)sc2c(NO)cc(C(F)(F)F)cc12 [C00013] |  | 10 µM |  | >80 µM | 18 µM (≈ 6.22 µg/mL) | 6.2 µg/mL (≈ 18 µM) |  | 
CC1COC2(CCN(c3nc(=O)c4cc(C(F)(F)F)cc(N=O)c4s3)CC2)O1 (centres unmarked) [Compound 8, 2-{2-Methyl-1,4-dioxa-8-azaspiro[4.5]decan-8-yl}-8-nitroso-6-(trifluoromethyl)-4H-1,3 benzothiazin-4-one] | linear dependence |  |  |  |  |  |  | 
O=c1nc(N2CCCCC2)oc2c([N+](=O)[O-])cc(C(F)(F)F)cc12 [Compound 4, 8-nitro-2-(piperidin-1-yl)-6-(trifluoromethyl)-4H-1,3-benzoxazin-4-one] | linear dependence |  |  |  |  |  |  | fold lower kinact/Ki of BOZ than the BTZ counterpart (Mtb-DprE1 [1]): 7 fold
O=c1nc(N2CCOCC2)sc2c([N+](=O)[O-])cc(C(F)(F)F)cc12 [C00003] |  | ≥450 µM | 2.1 µg/mL (≈ 5.81 µM) | 5.9 µM (≈ 2.13 µg/mL) | 8.6 µM (≈ 3.11 µg/mL) | 3.1 µg/mL (≈ 8.58 µM) | 17 ± 2 M⁻¹ s⁻¹ | 
O=c1nc(N2CCCCC2)oc2c([N+](=O)[O-])cc(C(F)(F)F)cc12 [C00006] |  | ≥510 µM | 5.3 µg/mL (≈ 15.4 µM) | 16 µM (≈ 5.49 µg/mL) | 4.6 µM (≈ 1.58 µg/mL) | 1.6 µg/mL (≈ 4.66 µM) | 5.6 ± 0.1 M⁻¹ s⁻¹ | 
C[C@H]1COC2(CCN(c3nc(=O)c4cc(C(F)(F)F)cc([N+](=O)[O-])c4s3)CC2)O1 [Compound 12, reference compound] | linear dependence |  |  |  |  |  |  | IC50 (Mtb-DprE1 [1]; after 10 min of reaction time, read-out: enzymatic DprE1 IC50): ~1.5 µM; IC50 (Mtb-DprE1 [1]; after 100 min of reaction time, read-out: enzymatic DprE1 IC50): ~0.12 µM; IC50 (Mtb-DprE1 [1]; equal to half the concentration of enzyme in the assay (150 nM), read-out: limiting IC50 value in theory had the assay been monitored longer): 0.075 µM; fold by which reported M. smegmatis and M. tuberculosis MIC values are lower than M. smegmatis DprE1 IC50 (M. smegmatis [3]; MIC ref 4, IC50 ref 9): approximately 1000 fold; change in the mass spectrum of Mtb-DprE1 (Mtb-DprE1 [5]; control experiment in the absence of substrate): no change was observed; IC50 (M. smegmatis DprE1): 4.5 µM
CC1CCCC(C)N1c1nc(=O)c2cc(C(F)(F)F)cc([N+](=O)[O-])c2o1 (centres unmarked) [Compound 5, 2-(2,6-Dimethylpiperidin-1-yl)-8-nitro-6-(trifluoromethyl)-4H-1,3-benzoxazin-4-one] | linear dependence |  |  |  |  |  |  | fold higher Mtb MIC of BOZ relative to BTZ counterpart (M. tuberculosis H37Rv): 8 fold; fold lower kinact/Ki of BOZ than the BTZ counterpart (Mtb-DprE1 [1]): 31 fold
C[C@H]1COC2(CCN(c3nc(=O)c4cc(C(F)(F)F)cc([N+](=O)[O-])c4s3)CC2)O1 [C00009] |  | 32 µM | 0.001 µg/mL (≈ 0.00232 µM) | 0.0023 µM (≈ 0.000992 µg/mL) | 0.001 µM (≈ 0.000431 µg/mL) | 0.0004 µg/mL (≈ 0.000927 µM) | 720 ± 20 M⁻¹ s⁻¹ | 
O=c1nc(N2CCCCC2)sc2c(NO)cc(C(F)(F)F)cc12 [Compound 2] |  |  |  |  |  |  |  | MIC (M. tuberculosis H37Rv; [8]): > 80 µM; MIC (M. vaccae 10670; Mycolicibacterium vaccae, 10670): 18.1 µM (≈ 6.25 µg/mL); IC50 (Mtb-DprE1 [1]; [6]): 0.8 µM; IC50 (Mtb-DprE1 [1]; [7]): 3.5 µM; mass increase of Mtb-DprE1 species (covalent adduct) (Mtb-DprE1 [5]; 10 µM Mtb-DprE1, 20 µM compound, absence of FPR and resazurin): 340–343 Da; time for covalent modification of the enzyme to reach completion (Mtb-DprE1 [5]; 20 μM compound, 10 µM Mtb-DprE1, no FPR): approximately one hour; extent of modification of Mtb-DprE1 (Mtb-DprE1 [5]; 30 minutes after incubation): partial modification; extent of modification of Mtb-DprE1 (Mtb-DprE1 [5]; 60 minutes after incubation): complete modification; mass increase of Mtb-DprE1 (covalent adduct) (Mtb-DprE1 [5]): 343 Da
O=Nc1cc(C(F)(F)F)cc2c(=O)nc(N3CCCCC3)sc12 [C00012] |  | 250 µM |  |  | 73 µM (≈ 25.1 µg/mL) | 25 µg/mL (≈ 72.8 µM) |  | Inhibition of Mtb-H37Rv (MIC) (M. tuberculosis H37Rv; at 80 μM): 82% Inhibition at 80 μM
C[C@H]1COC2(CCN(c3nc(=O)c4cc(C(F)(F)F)cc(N=O)c4s3)CC2)O1 [C00014] |  | 210 µM |  |  | 0.06 µM (≈ 0.0249 µg/mL) | 0.03 µg/mL (≈ 0.0722 µM) | 39 ± 1 M⁻¹ s⁻¹ | Inhibition of Mtb-H37Rv (MIC) (M. tuberculosis H37Rv; at 0.16 μM): 67% Inhibition at 0.16 μM
O=c1nc(N2CCOCC2)oc2c([N+](=O)[O-])cc(C(F)(F)F)cc12 [Compound 3, 2-(morpholin-4-yl)-8-nitro-6-(trifluoromethyl)-4H-1,3-benzoxazin-4-one] | linear dependence |  |  |  |  |  |  | fold lower kinact/Ki of BOZ than the BTZ counterpart (Mtb-DprE1 [1]): 4 fold
O=c1nc(N2CCOCC2)oc2c([N+](=O)[O-])cc(C(F)(F)F)cc12 [C00007] |  | ≥510 µM | 1.4 µg/mL (≈ 4.06 µM) | 3.9 µM (≈ 1.35 µg/mL) | 18 µM (≈ 6.21 µg/mL) | 6.2 µg/mL (≈ 18 µM) | 4.2 ± 0.1 M⁻¹ s⁻¹ | 
